Results from the supplement of paper PMC13380429.

Experiments:
Settings in all cases: 72 h
U2OS [1] = assay: relative viability EC50 (midpoint between 100% and the lowest measured viability); higher = less toxic
Vero E6 [2] = assay: as above
Calu-3 [3] = assay: as above
HepG2 [4] = assay: as above
Caco-2 [5] = assay: as above
U2OS [6] = assay: cell viability relative to DMSO; higher = less toxic
Vero E6 [7] = assay: as above
Calu-3 [8] = assay: as above
HepG2 [9] = assay: as above
Caco-2 [10] = assay: as above
U2OS [11] = assay: drug sensitivity score (DSS) for viability; higher = more toxic; extreme values may be limits of the assay
Vero E6 [12] = assay: as above
Calu-3 [13] = assay: as above
HepG2 [14] = assay: as above
Caco-2 [15] = assay: as above

Row | SMILES | relative viability EC50 (U2OS [1]) | relative viability EC50 (Vero E6 [2]) | relative viability EC50 (Calu-3 [3]) | relative viability EC50 (HepG2 [4]) | relative viability EC50 (Caco-2 [5]) | cell viability (U2OS [6]; 1 nM) | cell viability (U2OS [6]; 10 nM) | cell viability (U2OS [6]; 100 nM) | cell viability (U2OS [6]; 1000 nM) | cell viability (U2OS [6]; 10000 nM) | cell viability (Vero E6 [7]; 1 nM) | cell viability (Vero E6 [7]; 10 nM) | cell viability (Vero E6 [7]; 100 nM) | cell viability (Vero E6 [7]; 1000 nM) | cell viability (Vero E6 [7]; 10000 nM) | cell viability (Calu-3 [8]; 1 nM) | cell viability (Calu-3 [8]; 10 nM) | cell viability (Calu-3 [8]; 100 nM) | cell viability (Calu-3 [8]; 1000 nM) | cell viability (Calu-3 [8]; 10000 nM) | cell viability (HepG2 [9]; 1 nM) | cell viability (HepG2 [9]; 10 nM) | cell viability (HepG2 [9]; 100 nM) | cell viability (HepG2 [9]; 1000 nM) | cell viability (HepG2 [9]; 10000 nM) | cell viability (Caco-2 [10]; 1 nM) | cell viability (Caco-2 [10]; 10 nM) | cell viability (Caco-2 [10]; 100 nM) | cell viability (Caco-2 [10]; 1000 nM) | cell viability (Caco-2 [10]; 10000 nM) | drug sensitivity score (U2OS [11]) | drug sensitivity score (Vero E6 [12]) | drug sensitivity score (Calu-3 [13]) | drug sensitivity score (HepG2 [14]) | drug sensitivity score (Caco-2 [15])
1 | COc1ccc(-c2nc(N3CCOCC3)c3sc(CN(C)c4ncc(C(=O)NO)cn4)cc3n2)cn1 [CUDC-907] | 0.006 µM | 0.0166 µM | 0.0152 µM | 0.0069 µM | 0.0177 µM | 90.9% | 34.4% | 0.6% | 0.3% | 0.4% | 103% | 78.2% | 0% | -0.3% | -0.4% | 85.2% | 65.4% | 14.1% | 5.1% | 3.7% | 90.2% | 39.6% | 0.6% | -0.1% | -0.1% | 81.5% | 73.2% | 3.5% | 0.6% | 1% | 38.7 | 34 | 32 | 37.9 | 33
2 | CC(C)N(CCc1c[nH]c2ccccc12)C(C)C [DIPT] | > 10 µM | > 10 µM | > 10 µM | > 10 µM | > 10 µM | 101% | 99.7% | 98.2% | 102% | 96.6% | 103% | 98.9% | 101% | 95.1% | 97.4% | 85.7% | 95.4% | 97.5% | 96% | 103% | 93.2% | 86.3% | 99.5% | 86% | 95.7% | 95% | 103% | 107% | 101% | 102% | 0 | 0 | 0 | 0 | 0
3 | CS(=O)(=O)c1ccc(-c2cnc(NCc3ccco3)n3cnnc23)cc1 [EED226] | > 10 µM | > 10 µM | > 10 µM | > 10 µM | > 10 µM | 98.3% | 97.1% | 98.5% | 97.4% | 98% | 107% | 100% | 103% | 105% | 98% | 102% | 102% | 94.4% | 111% | 111% | 99.8% | 92.8% | 94.6% | 102% | 87% | 95.7% | 82.8% | 104% | 88.1% | 103% | 0 | 0 | 0 | 0.1 | 0
4 | CCC(CC)n1ccc2c(C(=O)NCc3c(C)cc(C)[nH]c3=O)cc(C#N)cc21 [EI1] | > 10 µM | > 10 µM | > 10 µM | > 10 µM | > 10 µM | 98.7% | 99.4% | 93.8% | 96.1% | 101% | 105% | 100% | 107% | 97.5% | 104% | 94.2% | 96.6% | 101% | 109% | 102% | 90.7% | 92.3% | 101% | 93.7% | 97.6% | 105% | 95.1% | 97.2% | 95.4% | 93.6% | 0 | 0 | 0 | 0 | 0
